Test results as given in US20240318142A1, “METHOD FOR PRODUCING RENAL INTERSTITIAL PROGENITOR CELLS, ERYTHROPOIETIN-PRODUCING CELLS, AND METHOD FOR PRODUCING RENIN-PRODUCING CELLS” (KYOTO UNIVERSITY, priority 2021, published 2024).

Legend:
[1] = test system: hiPSC-derived IPCs; experiment: qRT-PCR of EPO after further differentiation induction from IPCs (renal EPO-producing cells); format: cell-based, human; settings: for EPO expression compared to the combination of SB431542 and SAG: combination of A83-01 and SAG in CFR medium, FIG. 10; for effect on the SAG-induced EPO up-regulation: modulator together with SAG 500 nM, CHIR99021, RA, and A83-01; for effect on the SAG-induced EPO up-regulation / EPO expression: FIG. 15; for EPO expression: SHH signal modulators under induction conditions using CHIR99021, RA, and A83-01, Days 11 to 14
Method: (§1) FIG. 9 is a diagram illustrating results of qRT-PCR analysis of EPO and renin carried out on Days 11 to 14, that is, after obtaining renal interstitial progenitor cells, for comparison of the effects of combinations of candidate differentiation induction factors for renal EPO-producing cells or renin-producing cells. The SAG concentration was 500 nM, and the concentrations of SB and CHIR are expressed in the unit of μM.
(§2) FIG. 10 is a diagram illustrating results of qRT-PCR analysis of EPO and renin on Days 11 to 14, that is, after obtaining renal interstitial progenitor cells, for comparison of the effects of combinations of various candidate differentiation induction factors. The SAG concentration was 500 nM; the concentrations of SB and A83 are expressed in the unit of μM; LDN is expressed in the unit of nM; and TGFβ1, BMP7, and activin (ACT) are expressed in the unit of ng/mL.
FIG. 15 is a diagram illustrating results of qRT-PCR analysis of EPO carried out on Days 11 to 14, that is, after obtaining renal interstitial progenitor cells, for comparison of the effects of various Sonic Hedgehog (SHH) signal modulators under induction conditions using CHIR99021, RA, and A83-01. So, Vi, Pu, Sa, and Ga represent sonidegib, vismodegib, purmophamine, SANT-1, and GANT61, respectively, and their concentrations are expressed in the unit of μM. The concentration of SAG was 500 nM, and the concentration of SHH was 100 ng/mL.
(§3) First, using the IPCs on Day 11, culture was performed under 5% O2 hypoxic conditions in the presence of FG-4592 (N-[(4-hydroxy-1-methyl-7-phenoxy-3-isoquinolinyl)carbonyl]-glycine) and RA with addition of various factors. By measuring the expression of EPO and renin, screening for induction factors for renin-producing cells and renal EPO-producing cells was carried out.
Subsequently, the effects of various SHH signal modulators in a system for differentiation induction from IPCs to EPO-producing cells were investigated (FIG. 15). Several SMO antagonists (sonidegib, vismodegib, and SANT-1) and agonists (SAG and purmophamine), a GLI1 inhibitor (GANT61), and human SHH protein were tested.

[2] = test system: hiPSC-derived IPCs; experiment: qRT-PCR of renin and mesangial/JG cell markers after further differentiation induction from IPCs (renin-producing cells); format: cell-based, human
Method: as §1, §2
FIG. 11 is a diagram illustrating results of qRT-PCR analysis of renin on Days 11 to 14, that is, after obtaining renal interstitial progenitor cells, for comparison of the effects of various factors. In the presence of CHIR99021, RA, and FG-4592 (CFR), the effects of BMP4, BMP5, and BMP7 (10 ng/mL or 100 ng/mL) were investigated under conditions with or without treatment by SB431542 (1 μM). SB is expressed in the unit of […], and TGFβ1 and ACT are expressed in the unit of ng/mL.
FIG. 12 is a diagram illustrating results of qRT-PCR analysis of marker expression for the mesangial cell lineage (GATA3, renin, and GJA5) and IPCs (FOXD1) at Hour 0 and Hour 96 after treatment with CFR+BMP7+SB. iPSC represents the control.
FIG. 13 is a diagram illustrating results of qRT-PCR analysis of cells that were subjected to treatment under hypoxic (CFR+B7+SB in 5% O2) or normal oxygen (CFR+B7+SB minus FG-4592 in 20% O2) conditions on Days 11 to 15, that is, after obtaining renal interstitial progenitor cells, which analysis was carried out for markers for JG (renin and GJA4) and mesangial cells (EBF1, GJA5, ITGA8, and GATA3). * indicates p<0.05; ** indicates p<0.01; and NS indicates “no significant difference” (Student's t-test).
FIG. 14 is a diagram illustrating results of qRT-PCR analysis of cells that were subjected to treatment with VEGF (100 ng/mL) or axitinib (3 μM) and also to treatment under hypoxic conditions (CFR+B7+SB in 5% O2) or normal conditions (CFR+B7+SB minus FG-4592 in 20% O2) on Days 11 to 15, that is, after obtaining renal interstitial progenitor cells, which analysis was carried out for markers for JG (renin and GJA4), mesangial cells (EBF1, GJA5, ITGA8, and GATA3), and VEGFA.
as §3

[3] = test system: PPS cells obtained by differentiation induction from human iPS cells; experiment: Induction of FOXD1-positive renal interstitial progenitor cells (IPC) from PPS cells, flow cytometric analysis (FOXD1 and OSR1) on Day 11; format: cell-based; settings: for induction efficiency for OSR1-positive FOXD1-positive cells: addition of IL-1β (10 ng/mL) and SAG (500 nM) together on Days 6 to 8, FIG. 6
Method: FIG. 3 is a diagram illustrating results of flow cytometric analysis (FOXD1 and OSR1), carried out on Day 11, of cells that were treated with various combinations of factors during the differentiation induction period of Days 6 to 11 (the period corresponding to “Screening” in FIG. 1). The following concentrations were employed: 1 μM CHIR99021 (CHIR), 10 μM SB431542 (SB), 100 nM retinoic acid (RA), 200 ng/mL FGF9, and 25 ng/mL Noggin.
FIG. 5 is a diagram illustrating results of flow cytometric analysis (FOXD1 and OSR1), carried out on Day 11, of cells that were treated or not treated with Smoothened Agonist (SAG) (concentration, 500 nM) during the differentiation induction period of Days 6 to 8. ** indicates p<0.01 (Student's t-test), and NS indicates “no significant difference”.
FIG. 6 is a diagram illustrating results of flow cytometric analysis (FOXD1 and OSR1), carried out on Day 11, of cells that were treated with various factors during the differentiation induction period of Days 6 to 8. The following concentrations were employed: 1 μM CHIR, 10% Wnt3a, 200 ng/mLRSPO1 (R-Spondin-1), 500 nM SAG, 10 ng/mL IL-1β, 50 ng/mL Estradiol, and 10 ng/mL TGFβ1.
Human iPS cells (hiPSCs) (17K6:OSR1-GFP/FOXD1-tdTomato double knock-in hiPSCs) were first subjected to enzyme treatment for 5 minutes using a 1:1 mixture of TrypLE Select Enzyme (Thermo Fisher Scientific) and 0.5 mM EDTA/PBS, and then washed with PBS(−). Thereafter, the cells were detached using a cell scraper, and then dissociated into single cells by gentle pipetting. One day before the start of differentiation, the cells were plated into a 24-well plate (CORNING) at a density of 1.3×10^4 cells/cm^2 together with 0.5 mL of Stem Fit AK02N (Ajinomoto Healthy Supply Co., Inc.) supplemented with 10 μM Y-27632 and 2.4 μL/mL iMatrix-511 (Matrixome). Twenty-four hours later (Day 0), 5 μM CHIR99021 (Wako), 10 nM RA (Sigma), 1 ng/mL BMP4 (Peprotech), and 100 ng/mL bFGF (Wako) were added to a serum-free differentiation medium comprising DMEM/F12 Glutamax (Thermo Fisher Scientific), B27 supplement minus vitamin A (Thermo Fisher Scientific), and 0.5× penicillin/streptomycin (hereinafter referred to as basal medium), and then culture was started. Twenty-four hours thereafter (Day 1), culture was performed with a basal medium supplemented with 5 μM CHIR99021, 100 ng/mL bFGF, and 1 ng/mL BMP7 (R&D Systems). On Day 2, the medium was switched to a basal medium supplemented with 5 μM CHIR99021, 1 ng/mL BMP7, and 10 μM A83-01 (Wako). On Day 3, the medium was switched to a basal medium supplemented with 5 μM CHIR99021, 30 ng/mL bFGF, 10 ng/mL activin A (R&D Systems), and 30 μM Y-27632 (Wako). On Day 4, the cells were washed with PBS(−), treated with Accumax (Innovative Cell Technologies), and then dissociated into single cells by gentle pipetting, followed by plating into a 24-well plate (CORNING) at a density of 1.05×10^5 cells/cm^2 (2D culture) or plating into a 96-well low-cell-adhesive plate (Thermo Fisher Scientific) at a density of 2.0×10^4 cells/cm^2 (3D culture). Culture was performed for 48 hours using a basal medium supplemented with 5 μM CHIR99021, 30 ng/mL bFGF, 10 ng/mL activin A, and 30 μM Y-27632 (in addition, 1.2 μL/well iMatrix-511 or a laminin-E8 fragment library in the case of 2D culture). By this, HOXC10- and CITED1-positive PPS cells were induced.
For the PPS cells on Day 6 of the culture protocol in FIG. 1, several differentiation induction conditions were tested by combining various factors. […]

[4] = BMP (10 or 100 ng/mL) added to CFR medium in the presence of SB431542 (1 μM), FIG. 11

With `Cc1cccc(-c2nn(C(=S)Nc3ccccc3)cc2-c2ccnc3ccccc23)n1` [A83-01] the “EPO expression compared to the combination of SB431542 and SAG” value [1] was “higher EPO expression”.

For `Cc1c[nH]c(-c2cnc(NCCNc3ccc(C#N)cn3)nc2-c2ccc(Cl)cc2Cl)n1` [CHIR99021], the expression of renin ([2]; combination of CHIR99021 and SB431542, absence of SAG, 5% O2, FG-4592 and RA present, FIG. 9) was “increase the expression of renin” and the “induction of FOXD1-positive cells” value ([3]; 5 days of treatment (Days 6 to 11) with the combination CHIR99021 1 μM, SB431542 10 μM and RA 100 nM, FIG. 3) was “could be induced”.

With `CN(C)c1ccccc1CN1CCCN(Cc2ccccc2N(C)C)C1c1ccncc1` [GANT61] the “effect on the SAG-induced EPO up-regulation” value (“effect” for short) [1] was “did not reduce the effect of SAG”.

In the case of `CNC1CCC(N(Cc2cccc(-c3ccncc3)c2)C(=O)c2sc3ccccc3c2Cl)CC1` (stereo not shown) [SAG], the “induction efficiency for FOXD1-positive cells” value ([3]; SAG 500 nM added on Days 6 to 8 to CHIR99021+SB431542+RA, FIG. 5) is reported as “further increased”, the “induction efficiency for OSR1-positive FOXD1-positive cells” value [3] is reported as “increases” and the EPO expression [1] is reported as “up-regulation of EPO”. The “EPO expression compared to the combination of SB431542 and SAG” value [1] was “higher EPO expression” and the “expression of EPO” value ([1]; combination of SB431542 and SAG (500 nM), 5% O2, FG-4592 and RA present, FIG. 9) was “increase the expression of EPO”.

In the case of `Cc1nn(-c2ccccc2)c(C)c1/C=N/N1CCN(Cc2ccccc2)CC1` [SANT-1], the “effect” value [1] is reported as “reduced the effect of SAG”.

In the case of `c1ccc2c(Oc3nc(Nc4ccc(N5CCOCC5)cc4)c4ncn(C5CCCCC5)c4n3)cccc2c1` [purmophamine, 9-cyclohexyl-N-[4-(4-morpholinyl)phenyl]-2-(1-naphthalenyloxy)-9H-purine-6-amine], the EPO expression [1] is reported as “up-regulation of EPO”.

For `Cc1c(C(=O)Nc2ccc(N3C[C@@H](C)O[C@@H](C)C3)nc2)cccc1-c1ccc(OC(F)(F)F)cc1` [sonidegib], the “effect” value [1] was “reduced the effect of SAG”.

With `CS(=O)(=O)c1ccc(C(=O)Nc2ccc(Cl)c(-c3ccccn3)c2)c(Cl)c1` [vismodegib] the “effect” value [1] was “reduced the effect of SAG”.

“IL-1β: interleukin-1β, preferably human IL-1β protein” was tested, and the “induction efficiency for OSR1-positive FOXD1-positive cells” value [3] was “increases”.

With VEGF the “expression of markers for juxtaglomerular (JG) cells and mesangial cells” value ([2]; VEGF 100 ng/mL added to CFR+B7+SB, Days 11 to 15, FIG. 14) was “increases”.

B1: BMP7: bone morphogenetic protein 7 (protein, UniProt P18075 293-431, looked up)
Bone morphogenetic protein 7: STGSKQRSQNRSKTPKNQEALRMANVAENSSSDQRQACKKHELYVSFRDLGWQDWIIAPEGYAAYYCEGECAFPLNSYMNATNHAIVQTLVHFINPETVPKPCCAPTQLNAISVLYFDDSSNVILKKYRNMVVRACGCH
In the case of B1, the expression of renin [2, 4] is reported as “high expression of renin” and the expression of renin ([2]; added to CFR medium (CHIR99021, FG-4592, RA), absence of SAG, FIG. 10) is reported as “positively affected”.

B2: BMP4: bone morphogenetic protein 4 (protein, UniProt P12644 293-408, looked up)
Bone morphogenetic protein 4: SPKHHSQRARKKNKNCRRHSLYVDFSDVGWNDWIVAPPGYQAFYCHGDCPFPLADHLNSTNHAIVQTLVNSVNSSIPKACCVPTELSAISMLYLDEYDKVVLKNYQEMVVEGCGCR
With B2 the expression of renin [2, 4] was “high expression of renin”.

B3: BMP5: bone morphogenetic protein 5 (protein, UniProt P22003 317-454, looked up)
Bone morphogenetic protein 5: AANKRKNQNRNKSSSHQDSSRMSSVGDYNTSEQKQACKKHELYVSFRDLGWQDWIIAPEGYAAFYCDGECSFPLNAHMNATNHAIVQTLVHLMFPDHVPKPCCAPTKLNAISVLYFDDSSNVILKKYRNMVVRSCGCH
With B3 the expression of renin [2, 4] was “high expression of renin”.
